Assay results as given in ChEMBL document CHEMBL4619767, “Precursor-Directed Biosynthesis and Fluorescence Labeling of Clickable Microcystins” (J Nat Prod, 2020).
Numbered stars: 1 amine (or outer) side, 2 acyl side, 3 side chain; on linkers, the order of the positions; unused ones are H or OH. Bridge positions count the residues as written; N and C are the ends. Square brackets hold non-standard residues; d marks the D form. Peptide text beside a SMILES is read from it. * marks the point of attachment. Adda = CO[C@@H](Cc1ccccc1)[C@@H](C)/C=C(C)/C=C/[C@H](N[*:1])[C@H](C)C(=O)[*:2]; dAsp(3S-Me) = C[C@H](C(=O)[*:3])[C@@H](N[*:1])C(=O)[*:2]; d(γGlu) = O=C(O)[C@@H](CCC(=O)[*:2])N[*:1]; NMeDha = C=C(NC)C(=O)O; Propargyl = C#CC*

What was measured:
HEK293 [1] = experiment: Cytotoxicity against OATP1B1 (-/-) HEK293 cells incubated for 48 hrs by sulforhodamine B assay; assay type: ADME, cell-based, Homo sapiens
[2] = Drug uptake in OATP1B1 (-/-) HEK293 cells at 100 nM measured up to 8 mins by fluorescence time-lapse microscopy; assay type: ADME, cell-based; conditions: human, hek293, 8 min, 0.1 µM
[3] = Drug uptake in OATP1B3 (-/-) HEK293 cells at 100 nM measured up to 8 mins by fluorescence time-lapse microscopy; assay type: ADME, cell-based; conditions: human, hek293, 8 min, 0.1 µM
HEK293 [4] = experiment: Cytotoxicity against OATP1B3 (-/-) HEK293 cells incubated for 48 hrs by sulforhodamine B assay; assay type: ADME, cell-based, Homo sapiens

For `C=C1C(=O)N[C@H](C)C(=O)N[C@@H](Cc2ccc(OCc3cn(-c4cc5ccc(O)cc5oc4=O)nn3)cc2)C(=O)N[C@@H](C(=O)O)[C@H](C)C(=O)N[C@@H](CCCNC(=N)N)C(=O)N[C@@H](/C=C/C(C)=C/[C@H](C)[C@H](Cc2ccccc2)OC)[C@H](C)C(=O)N[C@@H](C(=O)O)CCC(=O)N1C`, the EC50 (HEK293 [1]) was greater than 2000 nM, the Drug uptake [2] was “Not Active” and the Drug uptake [3] was “Not Active”. The EC50 (HEK293 [4]) was greater than 2000 nM.
For `C#CCOc1ccc(C[C@@H]2NC(=O)[C@@H](C)NC(=O)C(=C)N(C)C(=O)CC[C@H](C(=O)O)NC(=O)[C@@H](C)[C@H](/C=C/C(C)=C/[C@H](C)[C@H](Cc3ccccc3)OC)NC(=O)[C@H](CCCNC(=N)N)NC(=O)[C@@H](C)[C@H](C(=O)O)NC2=O)cc1` (R[Adda][d(γGlu)][NMeDha][dA]Y(Propargyl)[dAsp(3S-Me)]-OH; lactam N-7), the EC50 (HEK293 [1]) was greater than 2000 nM and the EC50 (HEK293 [4]) was greater than 2000 nM.
For `C=C1C(=O)N[C@H](C)C(=O)N[C@@H](Cc2ccc(O)cc2)C(=O)N[C@@H](C(=O)O)[C@H](C)C(=O)N[C@@H](CCCNC(=N)N)C(=O)N[C@@H](/C=C/C(C)=C/[C@H](C)[C@H](Cc2ccccc2)OC)[C@H](C)C(=O)N[C@@H](C(=O)O)CCC(=O)N1C` (R[Adda][d(γGlu)][NMeDha][dA]Y[dAsp(3S-Me)]-OH; lactam N-7), the EC50 (HEK293 [1]) was greater than 2000 nM and the EC50 (HEK293 [4]) was greater than 2000 nM.
